Measured values reported in BindingDB's records for doi:10.1016/0960-894X(95)00399-E (1995).

Columns and labels:
[1] = target: Gastrin/cholecystokinin type B receptor (Cavia porcellus); assay: Binding affinity towards Cholecystokinin type B receptor was measured by displacement of [125I]CCK from guinea pig cortical membranes
[2] = target: Gastrin/cholecystokinin type B receptor (Cavia porcellus); assay: as above; remark: listed apart in the source

Row | IC50 [1] | IC50 [2] | Structure (SMILES)
1 | 1.4 nM |  | CN1C(=O)C(NC(=O)Nc2cccc(C(=O)O)c2)N=C(C2CCCCC2)c2ccccc21 (stereo not drawn) [3-[3-(5-Cyclohexyl-1-methyl-2-oxo-2,3-dihydro-1H-benzo[e][1,4]diazepin-3-yl)-ureido]-benzoic acid]
2 | 0.36 nM |  | CC(=O)NS(=O)(=O)c1cccc(NC(=O)NC2N=C(C3CCCCC3)c3ccccc3N(C)C2=O)c1 (stereo not drawn) [N-Acetyl-3-[3-(5-cyclohexyl-1-methyl-2-oxo-2,3-dihydro-1H-benzo[e][1,4]diazepin-3-yl)-ureido]-benzenesulfonamide]
3 |  | 0.73 nM | CN1C(=O)[C@H](NC(=O)Nc2cccc(C(=O)NS(=O)(=O)c3ccccc3)c2)N=C(C2CCCCC2)c2ccccc21 [N-{3-[3-((R)-5-Cyclohexyl-1-methyl-2-oxo-2,3-dihydro-1H-benzo[e][1,4]diazepin-3-yl)-ureido]-benzoyl}-benzenesulfonamide]
